Type: physicochemical
Conditions: 25° C., listed as S2
Description: Preferably, the anhydrates or ansolvates according to the invention and especially the crystalline form A1 can be characterised, alternatively or additionally, by dynamic vapour sorption experiments. The results can be obtained by standard techniques as described in Rolf Hilfiker, ‘Polymorphism in the Pharmaceutical Industry’, Wiley-VCH. Weinheim 2006 (Chapter 9: Water Vapour Sorption, and references therein). […] Eur. criteria.
Preferably, the tetrasolvates according to the invention, more preferably the tetrahydrates according to the invention and especially the crystalline form S3 can be characterised, alternatively or additionally, by dynamic vapour sorption experiments. The results can be obtained by standard techniques as described in Rolf Hilfiker, ‘Polymorphism in the Pharmaceutical Industry’, Wiley-VCH. Weinheim 2006 (Chapter 9: Water Vapour Sorption, and references therein).
Dynamic Vapor Sorption measurements are preferably obtained on a SMS DVS Intrinsic system. The results are preferably obtained by standard techniques as described by Rolf Hilfiker “Polymorphism in the Pharmaceutical Industry” Wiley-VCH Weinheim 2006 (Chapter 9: Water Vapour Sorption, and references therein.) Approx. 2-10 mg of samples are preferably weighed into an Aluminium 100 μL pan and placed in the sample incubator of the DVS instrument with microbalance. A nitrogen overall flow rate of 200 mL/min (combined dry and humid stream) is preferably used for humidification. Water vapor sorption isotherms are preferably acquired at 25° C. in the range 0% relative humidity to 98% relative humidity mostly with 10% relative humidity steps. For all relative humidity steps, an equilibrium condition of dm/dt≦0.0005 wt %/min are preferably used, with a minimum relative humidity step time of 10 minutes and a maximum relative humidity step time of 360 minutes which is preferably used as a timeout if the dm/dt criterai mentioned above is not been reached.
A SMS DVS I system is used for the dynamic vapour experiments regarding crystalline form S3. The results have been obtained by standard techniques as described in Rolf Hilfiker, ‘Polymorphism in the Pharmaceutical Industry’, Wiley-VCH. Weinheim 2006 (Chapter 9: Water Vapour Sorption, and references therein). […] During the water adsorption cycle there is shown an assembly of water molecules (ca. 10 wt%) in the lattice at elevated rh. In the second desorption cycle there is a loss of this amount of water.
(§1) A SMS DVS Intrinsic is used for the dynamic vapour experiments. The results are obtained by standard techniques as described in Rolf Hilfiker, ‘Polymorphism in the Pharmaceutical Industry’, Wiley-VCH. Weinheim 2006 (Chapter 9: Water Vapour Sorption, and references therein). […] Upon water vapour adsorption, an assembly of water molecules in the lattice is observed, with a maximum weight gain of approx. 8 wt % at elevated rh. In the second desorption cycle a total mass loss of approx. 9.9 wt % is observed. For a Cilengitide Dihydrate Di-Methanolate, the calculated Methanol content equals 9.3 wt %.
as §1, with “6.4” for “8”, “9.2” for “9.9”, “Di-Ethanolate,” for “Di-Methanolate,”, “Ethanol” for “Methanol”, “12.5” for “9.3”

- Maximum weight gain upon water vapour adsorption (elevated rh): approx. 6.4 wt %
- Mass loss in the first desorption cycle (water vapour sorption): approx. 6.5 wt %
- Total mass loss in the second desorption cycle (water vapour sorption): approx. 9.2 wt %
Substance: cyclo-(Arg-Gly-Asp-DPhe-NMe-Val) [crystalline form S2]

Source: US8765684B2, “Solid materials of {[(2S,5R,8S,11S)-5-benzyl-11-(3-guanidino-propyl)-8-isopropyl-7-methyl-3,6,9,12,15-pentaoxo-1,4,7,10,13-pentaaza-cyclopentadec-2-yl]-acetic acid} and methods for obtaining them” (Merck Patent GmbH, priority 2009, dated 2014)
